Measured values published in ChEMBL document CHEMBL1138742, “Potent and orally bioavailable non-peptide antagonists at the human bradykinin B(1) receptor based on a 2-alkylamino-5-sulfamoylbenzamide core” (J Med Chem, 2004).

Experiments:
B1 bradykinin receptor [1] = target: T1, B1 bradykinin receptor (Homo sapiens, UniProt P46663); assay: Binding affinity for Bradykinin receptor B1 expressed in HEK293 cells; assay type: cell-based
T1 sequence (P46663 whole entry): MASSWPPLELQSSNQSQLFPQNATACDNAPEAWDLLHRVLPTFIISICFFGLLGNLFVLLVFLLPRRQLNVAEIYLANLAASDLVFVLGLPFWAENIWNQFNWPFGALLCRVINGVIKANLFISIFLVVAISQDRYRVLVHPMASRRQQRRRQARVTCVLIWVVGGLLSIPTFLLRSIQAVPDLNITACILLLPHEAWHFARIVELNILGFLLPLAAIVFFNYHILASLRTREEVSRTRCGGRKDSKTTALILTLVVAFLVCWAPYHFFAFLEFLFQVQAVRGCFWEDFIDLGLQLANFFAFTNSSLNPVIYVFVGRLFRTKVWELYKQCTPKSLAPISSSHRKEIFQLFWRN

B1 bradykinin receptor [2] = target: T1, B1 bradykinin receptor; assay: Inhibition of Bradykinin receptor B1 expressed in HEK293 cells; assay type: cell-based
B2 bradykinin receptor = target: T2, B2 bradykinin receptor (Homo sapiens, UniProt P30411); assay: Binding affinity for Bradykinin receptor B2 expressed in COS7 cells; assay type: cell-based, COS-7
T2 sequence (P30411 whole entry): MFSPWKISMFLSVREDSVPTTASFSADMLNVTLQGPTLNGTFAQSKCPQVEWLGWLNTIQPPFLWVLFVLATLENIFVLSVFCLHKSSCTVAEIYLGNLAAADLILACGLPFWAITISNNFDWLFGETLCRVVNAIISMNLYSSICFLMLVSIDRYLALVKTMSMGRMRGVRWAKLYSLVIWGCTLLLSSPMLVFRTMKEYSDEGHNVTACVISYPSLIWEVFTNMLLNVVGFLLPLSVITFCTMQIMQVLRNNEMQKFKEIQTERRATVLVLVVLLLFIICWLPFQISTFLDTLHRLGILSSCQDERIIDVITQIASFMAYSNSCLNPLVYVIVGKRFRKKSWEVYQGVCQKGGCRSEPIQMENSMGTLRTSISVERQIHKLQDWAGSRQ

Ki (B1 bradykinin receptor [1])	IC50 (B1 bradykinin receptor [2])	Ki (B2 bradykinin receptor)	Compound
> 1000 nM			CN(C)CCCN(CCCN(C)C)C(=O)CCNS(=O)(=O)c1ccc(NCC(c2ccccc2)c2ccccc2)c(Cl)c1
140 nM			CN(C)CCCN(CCCN(C)C)C(=O)CCNS(=O)(=O)c1ccc(NCC(c2ccccc2)c2ccccc2)c([N+](=O)[O-])c1
230 nM			CN(C)CCCN(CCCN(C)C)S(=O)(=O)c1ccc(NCC(c2ccccc2)c2ccccc2)c([N+](=O)[O-])c1
10 nM			CC(C)N1CCN(C(=O)C2CCN(S(=O)(=O)c3ccc(NCC(c4ccccc4)c4ccccc4)c(C(=O)N4CCOCC4)c3)CC2)CC1
1 nM			CN(C)CCCN(CCCN(C)C)C(=O)C1CCN(S(=O)(=O)c2ccc(NCC(c3ccccc3)c3ccccc3)c(C(=O)N3CCOCC3)c2)CC1
3000 nM	6200 nM	1400 nM	CN(C)CCCN(CCCN(C)C)S(=O)(=O)c1ccc(NC(c2ccccc2)c2ccccc2)c([N+](=O)[O-])c1
10 nM			CN(C)CCCN(CCCN(C)C)C(=O)CCNS(=O)(=O)c1ccc(NCC(c2ccccc2)c2ccccc2)c(C(=O)N2CCOCC2)c1
10 nM			CN1CCN(C(=O)C2CCN(S(=O)(=O)c3ccc(NCC(c4ccccc4)c4ccccc4)c(C(=O)N4CCOCC4)c3)CC2)CC1
130 nM			CC(=O)c1cc(S(=O)(=O)NCCC(=O)N(CCCN(C)C)CCCN(C)C)ccc1NCC(c1ccccc1)c1ccccc1
10 nM			CN(C)CCCN(CCCN(C)C)C(=O)C1CCN(S(=O)(=O)c2ccc(NCC(c3ccccc3)c3ccccc3)c([N+](=O)[O-])c2)CC1
250 nM			CN(C)CCCN(CCCN(C)C)S(=O)(=O)c1ccc(NC(Cc2ccccc2)Cc2ccccc2)c([N+](=O)[O-])c1
